In brackets after ≈: the same amount, converted by molar mass. Activity calls are given as the source filed them. No cut-off for these calls is given here.
What was measured:
A549 [1] = test: Cytotoxicity against human A549 cells overexpressing NQO1 assessed as reduction in cell viability incubated for 72 hrs by MTT assay; assay type: functional, cell-based; conditions: A549, 72 h
[2] = target: NAD(P)H dehydrogenase [quinone] 1 (Homo sapiens) (UniProt P15559); test: Substrate activity at recombinant human NQO1 assessed as enzymatic reduction rate at 10 uM
L02 = test: Cytotoxicity against NQO1-deficient human L02 cells assessed as reduction in cell viability incubated for 72 hrs by MTT assay; assay type: cell-based; conditions: L02, 72 h
[3] = Selectivity index, ratio of IC50 for NQO1-deficient human L02 cells to IC50 for human A549 cells overexpressing NQO1 incubated for 72 hrs by MTT assay
[4] = Selectivity index, ratio of IC50 for NQO1-deficient human NCI-H596 cells to IC50 for human A549 cells overexpressing NQO1 incubated for 72 hrs by MTT assay
[5] = Selectivity index, ratio of IC50 for human A549 cells overexpressing NQO1 to IC50 for NQO1-deficient human A549 cells assessed as reduction in cell viability pretreated with DIC followed by compound addition and measured after 72 hrs by MTT assay
A549 [6] = test: Cytotoxicity against NQO1-deficient human A549 cells assessed as reduction in cell viability pretreated with DIC followed by compound addition and incubated for 72 hrs by MTT assay; assay type: functional, cell-based
A549 [7] = test: Induction of apoptosis in human A549 cells assessed as condensed nuclei at 1 to 10 uM measured after 24 hrs by DAPI based confocal laser scanning microscopic method; assay type: functional, cell-based; conditions: dose 1-10 µM
A549 [8] = test: Induction of superoxide anion generation in human A549 cells at 1 to 10 uM incubated for 3 hrs by […] staining based confocal laser scanning microscopic method; assay type: functional, cell-based; conditions: dose 1-10 µM
A549 [9] = test: Induction of superoxide anion generation in human A549 cells at 10 uM pretreated with DIC or NAC for 1 hr followed by compound addition and measured after 3 hrs by […] staining based confocal laser scanning microscopic method; assay type: functional, cell-based
[10] = Lipophilicity, logD of the compound at pH 7.4 by potentiometric titration method; assay type: physicochemical; conditions: buffer
[11] = target: NAD(P)H dehydrogenase [quinone] 1 (Homo sapiens) (UniProt P15559); test: Induction of recombinant human NQO1-mediated ROS generation assessed as rate of reduction of cytochrome C at 25 uM by spectrophotometric assay; conditions: filed as activator
A549/TR = test: Cytotoxicity against human A549/Taxol cells overexpressing NQO1 assessed as reduction in cell viability incubated for 72 hrs by MTT assay; assay type: functional, cell-based
A549 [12] = test: Induction of ROS generation in human A549 cells at 1 to 10 uM incubated for 3 hrs by DCFH-DA staining based confocal laser scanning microscopic method; assay type: functional, cell-based; conditions: dose 1-10 µM
A549 [13] = test: Induction of ROS generation in human A549 cells at 10 uM pretreated with DIC or NAC for 1 hr followed by compound addition and measured after 3 hrs by DCFH-DA staining based confocal laser scanning microscopic method; assay type: functional, cell-based
[14] = Intrinsic solubility of the compound after 8 hrs by potentiometric titration method; assay type: physicochemical; conditions: read-out: Intrinsic_solubility
[15] = Solubility of the compound in pH 3 after 8 hrs by potentiometric titration method; assay type: physicochemical; conditions: buffer
[16] = target: NAD(P)H dehydrogenase [quinone] 1 (Homo sapiens) (UniProt P15559); test: Induction of recombinant human NQO1-mediated ROS generation assessed as rate of reduction of cytochrome C at 25 uM in presence of DIC by spectrophotometric assay
NCI-H596 = test: Cytotoxicity against NQO1-deficient human NCI-H596 cells assessed as reduction in cell viability incubated for 72 hrs by MTT assay; assay type: functional, cell-based; conditions: NCI-H596, 72 h
A549 [17] = test: Cytotoxicity against human DPP-resistant A549 cells overexpressing NQO1 assessed as reduction in cell viability incubated for 72 hrs by MTT assay; assay type: functional, cell-based; conditions: A549, 72 h

Sequence of NAD(P)H dehydrogenase [quinone] 1 (Homo sapiens) (P15559 whole entry): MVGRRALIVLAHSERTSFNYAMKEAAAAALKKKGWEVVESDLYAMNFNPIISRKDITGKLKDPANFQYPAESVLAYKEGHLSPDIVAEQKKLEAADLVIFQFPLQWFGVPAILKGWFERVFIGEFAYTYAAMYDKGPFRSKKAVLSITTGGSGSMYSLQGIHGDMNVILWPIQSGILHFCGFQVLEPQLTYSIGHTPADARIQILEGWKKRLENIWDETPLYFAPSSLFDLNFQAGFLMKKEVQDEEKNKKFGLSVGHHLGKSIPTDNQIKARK

Q: For `Cc1cc2c(cc1C)-c1oc(CN3CCC(N4CCCC4)CC3)c(C)c1C(=O)C2=O`, which IC50 (A549 [1]) is on record?
A: 8.7 µM

Q: And the Activity [2]?
A: 848 µmol/min

Q: What about the IC50 (L02) of the same molecule?
A: 31.2 µM

Q: And the “Ratio IC50” value [3]?
A: 3.58

Q: For `Cc1cc2c(cc1C)-c1occ(C)c1C(=O)C2=O`, which IC50 (A549 [1]) is on record?
A: 7.4 µM

Q: What about the Activity [2] of the same molecule?
A: 690 µmol/min

Q: And the IC50 (L02)?
A: 31.4 µM

Q: And the “Ratio IC50” value [3]?
A: 4.24

Q: With `Cc1cc2c(cc1C)-c1oc(CN3CCC(N4CCOCC4)CC3)c(C)c1C(=O)C2=O` as the molecule, how does the IC50 (A549 [1]) read?
A: 5.6 µM

Q: And the Activity [2]?
A: 951 µmol/min

Q: And the IC50 (L02)?
A: 28.9 µM

Q: What about the “Ratio IC50” value [3] of the same molecule?
A: 5.16

Q: What does the source list for `Cc1cc2c(cc1C)-c1oc(CN3CCOCC3)c(C)c1C(=O)C2=O`?
A: IC50 (A549 [1]): 4.9 µM; Activity [2]: 996 µmol/min; IC50 (L02): 28.5 µM; Ratio IC50 [3]: 5.81

Q: Which results are given for `Cc1cc2c(cc1C)-c1oc(CN3CCN(C)CC3)c(C)c1C(=O)C2=O`?
A: Ratio IC50 [4]: 11; Ratio IC50 [5]: >12.5; IC50 (A549 [6]): 30 µM; IC50 (A549 [1]): 2.4 µM; Activity (A549 [7]): Active; Activity (A549 [8]): Active; Activity (A549 [9]): inactive; Activity [2]: 1260 µmol/min; logD [10]: 1.97; IC50 (L02): 36.2 µM; Activity [11]: Active; IC50 (A549/TR): 4.5 µM; Activity (A549 [12]): Active; Activity (A549 [13]): inactive; solubility at 8 h [14]: 110 µg/mL (≈ 312 µM); Ratio IC50 [3]: 15.06; solubility at 8 h [15]: > 1000 µg/mL; Activity [16]: inactive; IC50 (NCI-H596): 27 µM; IC50 (A549 [17]): 4.8 µM

Q: Which IC50 (A549 [1]) does the source give for `Cc1cc2c(cc1C)-c1oc(CN3CCC(N4CCCCC4)CC3)c(C)c1C(=O)C2=O` here?
A: 9.1 µM

Q: And the Activity [2]?
A: 795 µmol/min

Q: What about the IC50 (L02) of the same molecule?
A: 40.5 µM

Q: What about the “Ratio IC50” value [3] of the same molecule?
A: 4.45

Q: Which IC50 (A549 [1]) does the source give for `CCN1CCN(Cc2oc3c(c2C)C(=O)C(=O)c2cc(C)c(C)cc2-3)CC1` here?
A: 2.9 µM

Q: And the Activity [2]?
A: 1200 µmol/min

Q: What about the logD [10] of the same molecule?
A: 1.99

Q: And the IC50 (L02)?
A: 35.8 µM

Q: And the solubility at 8 h [14]?
A: 82 µg/mL (≈ 224 µM)

Q: And the “Ratio IC50” value [3]?
A: 12.36

Q: What about the solubility at 8 h [15] of the same molecule?
A: > 1000 µg/mL

Q: With `Cc1cc2c(cc1C)-c1oc(CN3CCN(C4CC4)CC3)c(C)c1C(=O)C2=O` as the molecule, how does the IC50 (A549 [1]) read?
A: 3.9 µM

Q: What about the Activity [2] of the same molecule?
A: 1100 µmol/min

Q: What about the IC50 (L02) of the same molecule?
A: 34.6 µM

Q: And the “Ratio IC50” value [3]?
A: 8.86

Q: For `Cc1cc2c(cc1C)-c1oc(CN3CCN4CCCC4C3)c(C)c1C(=O)C2=O` (stereo not given), which IC50 (A549 [1]) is on record?
A: 4.3 µM

Q: What about the Activity [2] of the same molecule?
A: 1070 µmol/min

Q: And the IC50 (L02)?
A: 32.9 µM

Q: And the “Ratio IC50” value [3]?
A: 7.66

Q: With `CC1(C)CCC2=C(O1)c1ccccc1C(=O)C2=O` [LAPACHONE] as the molecule, how does the “Ratio IC50” value [4] read?
A: 4.7

Q: And the “Ratio IC50” value [5]?
A: 5.1

Q: And the IC50 (A549 [6])?
A: 29 µM

Q: What about the IC50 (L02) of the same molecule?
A: 9.6 µM

Q: And the IC50 (A549/TR)?
A: 11 µM

Q: What about the “Ratio IC50” value [3] of the same molecule?
A: 1.68

Q: And the IC50 (NCI-H596)?
A: 27 µM

Q: And the IC50 (A549 [17])?
A: 16 µM

Q: With `Cc1cc2c(cc1C)-c1oc(CN3CCC(N4CCN(C)CC4)CC3)c(C)c1C(=O)C2=O` as the molecule, how does the IC50 (A549 [1]) read?
A: 6.8 µM

Q: And the Activity [2]?
A: 904 µmol/min

Q: And the IC50 (L02)?
A: 29.8 µM

Q: And the “Ratio IC50” value [3]?
A: 4.38

Q: Which results are given for `Cc1cc2c(cc1C)-c1oc(CN3CCN4CCCCC4C3)c(C)c1C(=O)C2=O` (stereo not given)?
A: IC50 (A549 [1]): 4.5 µM; Activity [2]: 1030 µmol/min; IC50 (L02): 31.6 µM; Ratio IC50 [3]: 7.02

Q: Which IC50 (A549 [1]) does the source give for `Cc1cc2c(cc1C)-c1oc(CN3CCCCC3)c(C)c1C(=O)C2=O` here?
A: 12 µM

Q: What about the Activity [2] of the same molecule?
A: 768 µmol/min

Q: What about the IC50 (L02) of the same molecule?
A: 45.5 µM

Q: What about the “Ratio IC50” value [3] of the same molecule?
A: 3.79

Q: Which IC50 (A549 [1]) does the source give for `Cc1cc2c(cc1C)-c1oc(CN(C)C)c(C)c1C(=O)C2=O` here?
A: 15 µM

Q: And the Activity [2]?
A: 704 µmol/min

Q: What about the IC50 (L02) of the same molecule?
A: 46.9 µM

Q: And the “Ratio IC50” value [3]?
A: 3.12

Q: With `Cc1cc2c(cc1C)-c1oc(CN3CCN(S(C)(=O)=O)CC3)c(C)c1C(=O)C2=O` as the molecule, how does the IC50 (A549 [1]) read?
A: 7.2 µM

Q: And the Activity [2]?
A: 871 µmol/min

Q: What about the IC50 (L02) of the same molecule?
A: 31.2 µM

Q: And the “Ratio IC50” value [3]?
A: 4.33

Q: What does the source list for `Cc1cc2c(cc1C)-c1oc(CN3CCN(CCO)CC3)c(C)c1C(=O)C2=O`?
A: IC50 (A549 [1]): 3.1 µM; Activity [2]: 1160 µmol/min; logD [10]: 2.01; IC50 (L02): 35.8 µM; solubility at 8 h [14]: 61 µg/mL (≈ 159 µM); Ratio IC50 [3]: 11.56; solubility at 8 h [15]: > 1000 µg/mL

From ChEMBL document CHEMBL4837215, “Application of cation-π interactions in enzyme-substrate binding: Design, synthesis, biological evaluation, and molecular dynamics insights of novel hydrophilic substrates for NQO1” (Eur J Med Chem, 2021)
